ChEMBL document CHEMBL4665770, “Design and Discovery of Natural Cyclopeptide Skeleton Based Programmed Death Ligand 1 Inhibitor as Immune Modulator for Cancer Therapy” (J Med Chem, 2020)
Square brackets hold non-standard residues; d marks the D form. Peptide text beside a SMILES is read from it. Orn = NCCC[C@H](N)C(=O)O

target: Programmed cell death protein 1/Programmed cell death 1 ligand 1 (Homo sapiens) (UniProt Q15116+Q9NZQ7); test: Inhibition of PD1-Tag2/PD-L1-Tag1 (unknown origin) protein-protein interaction at 20 uM preincubated for 15 mins followed by addition of anti-Tag1-Eu3+ and anti-Tag2-XL665 measured after 3 hrs by HTRF assay relative to control; format: protein-complex assay; conditions: time 195.0 min

SMILES	inhibition
CC(C)C[C@@H]1NC(=O)[C@H](CC(=O)O)NC(=O)[C@H]([C@@H](C)O)NC(=O)[C@@H]2CCCN2C(=O)[C@@H](Cc2ccccc2)NC(=O)[C@H](CC(C)C)NC(=O)[C@H](Cc2cnc[nH]2)NC(=O)[C@H](C(C)C)NC(=O)[C@@H]2CCCN2C(=O)[C@@H](Cc2ccccc2)NC1=O (cyclo(DL[dF]PVHL[dF]PT))	6.8%
CC(C)C[C@@H]1NC(=O)[C@H](CC(=O)O)NC(=O)[C@H]([C@@H](C)O)NC(=O)[C@@H]2CCCN2C(=O)[C@@H](Cc2ccccc2)NC(=O)[C@H](CC(C)C)NC(=O)[C@H](CCCCN)NC(=O)[C@H](C(C)C)NC(=O)[C@@H]2CCCN2C(=O)[C@@H](Cc2ccccc2)NC1=O (cyclo(DL[dF]PVKL[dF]PT))	3.52%
CC(C)C[C@@H]1NC(=O)[C@H](CCCNC(=N)N)NC(=O)[C@H](C(C)C)NC(=O)[C@@H]2CCCN2C(=O)[C@@H](Cc2ccccc2)NC(=O)[C@H](C)NC(=O)[C@H](C)NC(=O)[C@H](C(C)C)NC(=O)[C@@H]2CCCN2C(=O)[C@@H](Cc2ccccc2)NC1=O (cyclo(AA[dF]PVRL[dF]PV))	16.7%
CC(C)C[C@@H]1NC(=O)[C@H](CCCNC(=N)N)NC(=O)[C@H](C(C)C)NC(=O)[C@@H]2CCCN2C(=O)[C@@H](Cc2ccccc2)NC(=O)[C@H](C)NC(=O)[C@H](CC(C)C)NC(=O)[C@H](C(C)C)NC(=O)[C@@H]2CCCN2C(=O)[C@@H](Cc2ccccc2)NC1=O (cyclo(A[dF]PVRL[dF]PVL))	4.03%
CC(C)C[C@@H]1NC(=O)[C@H](CCCNC(=N)N)NC(=O)[C@H](C(C)C)NC(=O)[C@H](CC(=O)O)NC(=O)[C@@H]2CCCN2C(=O)[C@@H](Cc2ccccc2)NC(=O)[C@H](CC(C)C)NC(=O)[C@H]([C@@H](C)O)NC(=O)[C@@H]2CCCN2C(=O)[C@@H](Cc2ccccc2)NC1=O (cyclo(DVRL[dF]PTL[dF]P))	1.93%
CC(C)C[C@@H]1NC(=O)[C@H](CC(=O)O)NC(=O)[C@H]([C@@H](C)O)NC(=O)[C@@H]2CCCN2C(=O)[C@@H](Cc2ccccc2)NC(=O)[C@H](Cc2cnc[nH]2)NC(=O)[C@H](CCCNC(=N)N)NC(=O)[C@H](C(C)C)NC(=O)[C@@H]2CCCN2C(=O)[C@@H](Cc2ccccc2)NC1=O (cyclo(DL[dF]PVRH[dF]PT))	7.13%
CC(C)C[C@@H]1NC(=O)[C@H](Cc2ccc(O)cc2)NC(=O)[C@H]([C@@H](C)O)NC(=O)[C@@H]2CCCN2C(=O)[C@@H](Cc2ccccc2)NC(=O)[C@H](CC(C)C)NC(=O)[C@H](CCCNC(=N)N)NC(=O)[C@H](C(C)C)NC(=O)[C@@H]2CCCN2C(=O)[C@@H](Cc2ccccc2)NC1=O (cyclo(L[dF]PTYL[dF]PVR))	8.25%
CC(NCCCC[C@@H]1NC(=O)[C@@H](Cc2ccccc2)NC(=O)[C@H](CC(C)C)NC(=O)[C@H](CC(=O)O)NC(=O)[C@H]([C@@H](C)O)NC(=O)[C@@H]2CCCN2C(=O)[C@@H](Cc2c[nH]c3ccccc23)NC(=O)[C@H](CC(C)C)NC(=O)[C@H](CCCNC(=N)N)NC(=O)[C@H](C(C)C)N(C)C1=O)=C1C(=O)CC(C)(C)CC1=O	29.1%
CC(C)C[C@@H]1NC(=O)[C@H](CC(=O)O)NC(=O)[C@H]([C@@H](C)O)NC(=O)[C@@H]2CCCN2C(=O)[C@@H](Cc2ccccc2)NC(=O)[C@H](CC(C)C)NC(=O)[C@H](CCCNC(=N)N)NC(=O)[C@H](C(C)C)NC(=O)[C@@H]2CCCN2C(=O)[C@@H](Cc2ccc(O)cc2)NC1=O (cyclo(DL[dY]PVRL[dF]PT))	18.7%
CC(C)C[C@@H]1NC(=O)[C@H](CC(=O)O)NC(=O)[C@H](C(C)C)NC(=O)[C@@H]2CCCN2C(=O)[C@@H](Cc2ccccc2)NC(=O)[C@H](CC(C)C)NC(=O)[C@H](CCCNC(=N)N)NC(=O)[C@H](CCC(=O)O)NC(=O)[C@@H]2CCCN2C(=O)[C@@H](Cc2ccccc2)NC1=O	-3.03%
CC(C)C[C@@H]1NC(=O)[C@H](CC(=O)O)NC(=O)[C@H](C(C)C)NC(=O)[C@@H]2CCCN2C(=O)[C@@H](Cc2ccccc2)NC(=O)[C@H](C)NC(=O)[C@H](CCCNC(=N)N)NC(=O)[C@H](C)NC(=O)[C@@H]2CCCN2C(=O)[C@@H](Cc2ccccc2)NC1=O (cyclo(ARA[dF]PVDL[dF]P))	33.7%
CC(C)C[C@@H]1NC(=O)[C@H](CC(=O)O)NC(=O)[C@H]([C@@H](C)O)NC(=O)[C@@H]2CCCN2C(=O)[C@@H](Cc2c[nH]c3ccccc23)NC(=O)[C@H](CC(C)C)NC(=O)[C@H](CCCNC(=N)N)NC(=O)[C@H](C(C)C)NC(=O)[C@@H]2CCCN2C(=O)[C@@H](Cc2ccccc2)NC1=O (cyclo(DL[dF]PVRL[dW]PT))	43.4%
CC(C)C[C@@H]1NC(=O)[C@H](CCCNC(=N)N)NC(=O)[C@H](C(C)C)NC(=O)[C@@H]2CCCN2C(=O)[C@@H](Cc2ccccc2)NC(=O)[C@H](Cc2cnc[nH]2)NC(=O)[C@H](CC(=O)O)NC(=O)[C@H]([C@@H](C)O)NC(=O)[C@@H]2CCCN2C(=O)[C@@H](Cc2ccccc2)NC1=O (cyclo(DH[dF]PVRL[dF]PT))	-8.61%
CC(C)C[C@@H]1NC(=O)[C@H](CC(=O)O)NC(=O)[C@H](CCCNC(=N)N)NC(=O)[C@H](C(C)C)NC(=O)[C@@H]2CCCN2C(=O)[C@@H](Cc2ccccc2)NC(=O)[C@H](CC(C)C)NC(=O)[C@H]([C@@H](C)O)NC(=O)[C@@H]2CCCN2C(=O)[C@@H](Cc2ccccc2)NC1=O (cyclo(DL[dF]PTL[dF]PVR))	-7.34%
CC(NCCCC[C@@H]1NC(=O)[C@@H](Cc2ccccc2)NC(=O)[C@H](CC(C)C)NC(=O)[C@H](CC(=O)O)NC(=O)[C@H]([C@@H](C)O)N(C)C(=O)[C@@H]2CCCN2C(=O)[C@@H](Cc2c[nH]c3ccccc23)NC(=O)[C@H](CC(C)C)NC(=O)[C@H](CCCNC(=N)N)NC(=O)[C@H](C(C)C)NC1=O)=C1C(=O)CC(C)(C)CC1=O	32.3%
CC(C)C[C@@H]1NC(=O)[C@H](CCCNC(=N)N)NC(=O)[C@H](C)NC(=O)[C@@H]2CCCN2C(=O)[C@@H](Cc2ccccc2)NC(=O)[C@H](C)NC(=O)[C@H](CCCNC(=N)N)NC(=O)[C@H](C(C)C)NC(=O)[C@@H]2CCCN2C(=O)[C@@H](Cc2ccccc2)NC1=O (cyclo(ARL[dF]PVRA[dF]P))	6.3%
CC(C)C[C@@H]1NC(=O)[C@H](CCCNC(=N)N)NC(=O)[C@H](C(C)C)NC(=O)[C@H](C)NC(=O)[C@@H](Cc2ccccc2)NC(=O)[C@H](C)NC(=O)[C@H](CCCNC(=N)N)NC(=O)[C@H](C(C)C)NC(=O)[C@@H]2CCCN2C(=O)[C@@H](Cc2ccccc2)NC1=O (cyclo(AVRL[dF]PVRA[dF]))	-0.657%
CC(NCCCC[C@@H]1NC(=O)[C@@H]2CCCN2C(=O)[C@@H](Cc2ccccc2)NC(=O)[C@H](CC(C)C)NC(=O)[C@H](CC(=O)O)NC(=O)[C@H]([C@@H](C)O)NC(=O)[C@@H]2CCCN2C(=O)[C@@H](Cc2c[nH]c3ccccc23)NC(=O)[C@H](CC(C)C)NC(=O)[C@H](CCCNC(=N)N)NC1=O)=C1C(=O)CC(C)(C)CC1=O	13.1%
CC(C)C[C@@H]1NC(=O)[C@H](CC(=O)O)NC(=O)[C@H]([C@@H](C)O)NC(=O)[C@@H]2CCCN2C(=O)[C@@H](Cc2ccccc2)NC(=O)[C@H](CC(C)C)NC(=O)[C@H](CCCNC(=N)N)NC(=O)[C@H](C(C)C)NC(=O)[C@@H]2CCCN2C(=O)[C@@H](Cc2c[nH]c3ccccc23)NC1=O (cyclo(DL[dW]PVRL[dF]PT))	35.8%
CC(C)C[C@@H]1NC(=O)[C@H](CCCNC(=N)N)NC(=O)[C@H](C(C)C)NC(=O)[C@@H]2CCCN2C(=O)[C@@H](Cc2ccccc2)NC(=O)[C@H](CC(C)C)NC(=O)[C@H](CC(=O)O)NC(=O)[C@H](CCC(=O)O)NC(=O)[C@@H]2CCCN2C(=O)[C@@H](Cc2ccccc2)NC1=O	1.14%
CC(C)C[C@@H]1NC(=O)[C@H](CCCN)NC(=O)[C@H](C(C)C)NC(=O)[C@@H]2CCCN2C(=O)[C@@H](Cc2ccccc2)NC(=O)[C@H](CC(C)C)NC(=O)[C@H](CCCN)NC(=O)[C@H](C(C)C)NC(=O)[C@@H]2CCCN2C(=O)[C@@H](Cc2ccccc2)NC1=O (cyclo(V[Orn]L[dF]PV[Orn]L[dF]P))	6.86%
CC(C)C[C@@H]1NC(=O)[C@H](CCCNC(=N)N)NC(=O)[C@H](C)NC(=O)[C@@H]2CCCN2C(=O)[C@@H](Cc2ccccc2)NC(=O)[C@H](C)NC(=O)[C@H](CCCNC(=N)N)NC(=O)[C@H](C)NC(=O)[C@@H]2CCCN2C(=O)[C@@H](Cc2ccccc2)NC1=O (cyclo(ARA[dF]PARL[dF]P))	0.7%
CCCC[C@@H]1NC(=O)[C@H](CC(=O)O)NC(=O)[C@H]([C@@H](C)O)NC(=O)[C@@H]2CCCN2C(=O)[C@@H](Cc2c[nH]c3ccccc23)NC(=O)[C@H](CC(C)C)NC(=O)[C@H](CCCNC(=N)N)NC(=O)[C@H](C(C)C)NC(=O)[C@H](CCCCNC(C)=C2C(=O)CC(C)(C)CC2=O)NC(=O)[C@@H](Cc2ccccc2)NC1=O	-2.81%
CC(C)C[C@@H]1NC(=O)[C@H](CC(=O)O)NC(=O)[C@H]([C@@H](C)O)NC(=O)[C@@H]2CCCN2C(=O)[C@@H](Cc2ccccc2)NC(=O)[C@H](CC(C)C)NC(=O)[C@H](CCC(N)=O)NC(=O)[C@H](C(C)C)NC(=O)[C@@H]2CCCN2C(=O)[C@@H](Cc2ccccc2)NC1=O (cyclo(DL[dF]PVQL[dF]PT))	47.5%
CC(C)C[C@@H]1NC(=O)[C@H](CCCNC(=N)N)NC(=O)[C@H](C(C)C)NC(=O)[C@@H]2CCCN2C(=O)[C@@H](Cc2ccccc2)NC(=O)[C@H](C)NC(=O)[C@H](CCCNC(=N)N)NC(=O)[C@H](C(C)C)NC(=O)[C@@H]2CCCN2C(=O)[C@@H](Cc2ccccc2)NC1=O (cyclo(A[dF]PVRL[dF]PVR))	21%
CC(C)C[C@@H]1NC(=O)[C@H](CCC(=O)O)NC(=O)[C@H]([C@@H](C)O)NC(=O)[C@@H]2CCCN2C(=O)[C@@H](Cc2ccccc2)NC(=O)[C@H](CC(C)C)NC(=O)[C@H](CCCNC(=N)N)NC(=O)C(C(C)C)NC(=O)[C@@H]2CCCN2C(=O)[C@@H](Cc2ccccc2)NC1=O (stereo partly drawn)	20.6%
CC(C)C[C@@H]1NC(=O)[C@H](CCCNC(=N)N)NC(=O)[C@H](C(C)C)NC(=O)[C@@H]2CCCN2C(=O)[C@@H](Cc2ccccc2)NC(=O)[C@H](C)NC(=O)[C@H](CCC(=O)O)NC(=O)[C@H](C)NC(=O)[C@@H]2CCCN2C(=O)[C@@H](Cc2ccccc2)NC1=O	-6.08%
CC(C)C[C@@H]1NC(=O)[C@H](CCCNC(=N)N)NC(=O)[C@H](C(C)C)NC(=O)[C@H](CC(C)C)NC(=O)[C@@H](Cc2ccccc2)NC(=O)[C@H](C)NC(=O)[C@H](CCCNC(=N)N)NC(=O)[C@H](C(C)C)NC(=O)[C@@H]2CCCN2C(=O)[C@@H](Cc2ccccc2)NC1=O (cyclo(A[dF]LVRL[dF]PVR))	11.2%
